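Tested at 5 concentrations; 48 h exposure; 96-well plates; endpoints linearly interpolated, else capped at highest concentration. GI50 = concentration required for 50% inhibition of growth. TGI: concentration producing complete growth inhibition.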
Tests used:
Assay in all cases: DTP human tumour cell line panel, 48 h
786-0 renal = test system: 786-0 renal
SNB-19 CNS = test system: SNB-19 CNS
SK-OV-3 ovarian = test system: SK-OV-3 ovarian
UO-31 renal = test system: UO-31 renal
SN12C renal = test system: SN12C renal
IGROV1 ovarian = test system: IGROV1 ovarian
SK-MEL-28 melanoma = test system: SK-MEL-28 melanoma
UACC-257 melanoma = test system: UACC-257 melanoma
NCI-H460 lung = test system: NCI-H460 lung
A498 renal = test system: A498 renal
NCI-H23 lung = test system: NCI-H23 lung
NCI/ADR-RES ovarian = test system: NCI/ADR-RES ovarian
HCC-2998 colon = test system: HCC-2998 colon
SF-268 CNS = test system: SF-268 CNS
UACC-62 melanoma = test system: UACC-62 melanoma
CAKI-1 renal = test system: CAKI-1 renal
DU-145 prostate = test system: DU-145 prostate
SR leukemia = test system: SR leukemia
SW-620 colon = test system: SW-620 colon
KM12 colon = test system: KM12 colon
LOX IMVI melanoma = test system: LOX IMVI melanoma
HCT-15 colon = test system: HCT-15 colon
SK-MEL-2 melanoma = test system: SK-MEL-2 melanoma
PC-3 prostate = test system: PC-3 prostate
OVCAR-3 ovarian = test system: OVCAR-3 ovarian
HOP-62 NSCLC = test system: HOP-62 NSCLC
HS 578T breast = test system: HS 578T breast
SF-295 CNS = test system: SF-295 CNS
MALME-3M melanoma = test system: MALME-3M melanoma
CCRF-CEM leukemia = test system: CCRF-CEM leukemia

COc1cc2c(c(OC)c1OC)C(=O)CC(c1cccc(NC(=O)c3cccc([N+](=O)[O-])c3)c1)O2 (centres undefined)
TGI (786-0 renal): > 100 µM | GI50 (SNB-19 CNS): 36.9 µM | TGI (SNB-19 CNS): > 100 µM | GI50 (SK-OV-3 ovarian): > 100 µM | TGI (SK-OV-3 ovarian): > 100 µM | GI50 (UO-31 renal): 4.79 µM | TGI (UO-31 renal): > 100 µM | GI50 (SN12C renal): 11.2 µM | TGI (SN12C renal): > 100 µM | GI50 (IGROV1 ovarian): 18.6 µM | TGI (IGROV1 ovarian): > 100 µM | GI50 (SK-MEL-28 melanoma): 35.2 µM | TGI (SK-MEL-28 melanoma): > 100 µM | GI50 (UACC-257 melanoma): 19.5 µM | TGI (UACC-257 melanoma): > 100 µM | GI50 (NCI-H460 lung): 17.2 µM | TGI (NCI-H460 lung): > 100 µM | GI50 (A498 renal): 67.4 µM | TGI (A498 renal): > 100 µM | GI50 (NCI-H23 lung): 32.8 µM | TGI (NCI-H23 lung): > 100 µM | GI50 (NCI/ADR-RES ovarian): 4.88 µM | TGI (NCI/ADR-RES ovarian): > 100 µM | GI50 (HCC-2998 colon): 55.1 µM | TGI (HCC-2998 colon): > 100 µM | GI50 (SF-268 CNS): 18.5 µM | TGI (SF-268 CNS): > 100 µM | GI50 (UACC-62 melanoma): 4.07 µM | TGI (UACC-62 melanoma): 65.4 µM | GI50 (CAKI-1 renal): 6.66 µM | TGI (CAKI-1 renal): > 100 µM | GI50 (DU-145 prostate): 21.5 µM | TGI (DU-145 prostate): > 100 µM | GI50 (SR leukemia): 3.15 µM | TGI (SR leukemia): > 100 µM | GI50 (SW-620 colon): 10.9 µM | TGI (SW-620 colon): > 100 µM | GI50 (KM12 colon): 3.39 µM | TGI (KM12 colon): > 100 µM | GI50 (LOX IMVI melanoma): 13.9 µM | TGI (LOX IMVI melanoma): > 100 µM | GI50 (HCT-15 colon): 6.57 µM | TGI (HCT-15 colon): > 100 µM | GI50 (SK-MEL-2 melanoma): 7.49 µM | TGI (SK-MEL-2 melanoma): 48.8 µM | GI50 (PC-3 prostate): 4.66 µM | TGI (PC-3 prostate): > 100 µM | GI50 (OVCAR-3 ovarian): 9.49 µM | TGI (OVCAR-3 ovarian): > 100 µM | GI50 (HOP-62 NSCLC): 98.7 µM | TGI (HOP-62 NSCLC): > 100 µM | GI50 (HS 578T breast): 7.29 µM | TGI (HS 578T breast): > 100 µM | GI50 (SF-295 CNS): 18.7 µM | TGI (SF-295 CNS): > 100 µM | GI50 (MALME-3M melanoma): 10.1 µM | TGI (MALME-3M melanoma): > 100 µM | GI50 (CCRF-CEM leukemia): 3.44 µM | TGI (CCRF-CEM leukemia): > 100 µM
